Converted amounts (≈) assume the structure as drawn. “Also recorded” adds a separate entry of the source. Peptide text beside a SMILES is read from it. * marks the point of attachment. ACC = NC(=O)Cc1cc(=O)oc2cc(N*)ccc12

Results on four compounds are retold here after patent US20260355329A1, “PRODRUG LINKER COMPOSITIONS AND METHODS OF USE” (priority 2023, published 2026).

Series [1] can be described thus: Release of ACC from Ac-Linker-ACC conjugates in mouse serum (serum stability). Format: in vitro ADME. The settings on record: role: substrate; 50% mouse serum, 8 h. The procedure: (§1) With the hit candidate in-hand, scarless cleavage was assessed with the turn-on fluorescent probe 7-amino-4-carbamoylmethylcoumarin (ACC), which only fluoresces when the ACC fluorophore is cleaved without an amino acid scar. To discover a scarless linker for LEHELGN (SEQ ID NO: 7), the following ACC conjugates (FIG. 9) were synthesized and cleavage rates were compared in 50% mouse serum and A. baumannii periplasmic extracts (FIGS. 10 and 11): Ac-LEHELGN-ACC (SEQ ID NO: 8), Ac-LEHELG-ACC (SEQ ID NO: 9), Ac-LEHEL-ACC (SEQ ID NO: 10), Ac-LEHE-ACC (SEQ ID NO: 11), Ac-LEH-ACC (SEQ ID NO: 12), Ac-LE-ACC, and Ac-L-ACC (note: Ac=acetyl).
To determine how each amino acid contributed to the selectivity of linker LEHELG (SEQ ID NO: 1), an ala scan was conducted. […] The cleavage rates of ala-substituted variants (P1-P6) were determined in mouse serum and in the periplasmic extracts from six strains of A. baumannii (FIG. 12).
Periplasmic extracts and mouse serum were not diluted prior to use in fluorescence assays and were allowed to undergo only one freeze-thaw cycle prior to use. […] The plate was sealed with a transparent polyolefin silicone film (Thermofisher™ Nuc™ Sealing Tape, 12-565-513) and placed in a plate reader at 37 °C with shaking at 225 rpm for 8 hours. […]

The test system of series [2] is A. baumannii periplasmic extract. Briefly: Release of ACC from Ac-Linker-ACC conjugates in A. baumannii periplasmic extract. Format: biochemical. Particulars: role: substrate, 8 h. The procedure: as §1
To determine how each amino acid contributed to the selectivity of linker LEHELG (SEQ ID NO: 1), an ala scan was conducted. Each position of the LEHELG (SEQ ID NO: 1) linker was substituted with a single alanine, the simplest amino acid containing a stereocenter, to create six variants. The P1 position is the amino acid directly adjacent to the cleavage site, which is conjugated to the ACC turn-on fluorophore. The cleavage rates of ala-substituted variants (P1-P6) were determined in mouse serum and in the periplasmic extracts from six strains of A. baumannii (FIG. 12). […]
Periplasmic extracts and mouse serum were not diluted prior to use in fluorescence assays and were allowed to undergo only one freeze-thaw cycle prior to use. […]

The subject of another series is HL60 cells. Briefly: Cell viability assay (MTT) in HL60 cells. Format: cell-based. Particulars: Homo sapiens, HL-60, 24 h, 0.07-10 μM, FIG. 14. The procedure:
Cell Culture: HL-60 cells were cultured at 37 °C in a 5% CO2 atmosphere. The cells were grown in Iscove's Modified Dulbecco's Medium, supplemented with 20% fetal bovine serum (FBS) and 0.1% penicillin-streptomycin. Media was replaced every other day until cells reached the desired confluency.
Viability Assay: HL-60 cells (4×10^3) were seeded in a 96-well plate in cell culture media (100 μL) for 24 hours at the atmosphere stated above (5% CO2). After incubation, the cells were treated with 10 μL of vehicle or drug (0.07-10 μM, n=6) for 24 hours at 37 °C. Cell viability was assessed using MTT. MTT media (30 μL, 5 mg/mL) was added to each well for 2 hours and plate was centrifuged at 500×g for 5 minutes after, followed by media aspiration. The formazan crystals left were solubilized in DMSO and absorbance (540 nm) was measured using a microplate reader (SpectraMax M5). Data obtained was normalized to the vehicle to generate final values. The graph plotted in FIG. 14 is depicted as the mean±SEM vs. compound concentration.

In another series the test system is A baumannii WC487. Briefly: MIC, broth microdilution. Format: cell-based. Particulars: Acinetobacter baumannii, MH-II broth, 16 h, 37 °C, dipyridyl 200 μM for siderophore conjugates. An excerpt: (§2) For full conjugate synthesis, the HMM siderophore (see FIG. 3) was chosen due to its ability to actively transport antibiotics into diverse bacteria. Solithromycin was chosen as a warhead to determine the quality of the cleavable linker in bacteria and to provide insight into the ability of the conjugate to actively transport through membranes. Solithromycin is a broad-spectrum antibiotic (G^+ and […]), and conjugates with this warhead require cleavage for activity, except in cases where the conjugate is actively transported to the cytoplasm, where the intact conjugate engages the target ribosome. When the minimum inhibitory concentration (MIC, minimum amount of drug to inhibit growth) of solithromycin equals the MIC of its cleavable L-linker conjugate, it indicates quantitative drug release, assuming the non-cleavable D-linker conjugate is not active (Table 1). D-linkers are not cleaved by most proteases.
(§3) Broth and Agar Preparation: Mueller-Hinton II (MH-II, cation-adjusted) broth was prepared from solid MH-II (22 g) and MilliQ H2O (1 L), which was autoclaved in a presterilized 1-L glass bottle. The autoclaved MH-II media contained dipyridyl (DP, 200 μM) for MIC assays involving siderophore conjugates. MH-II agar plates were prepared from autoclaved MH-II (22 g), Bacto agar (17 g), and MilliQ water (1 L). The bacterial strains were obtained from glycerol stocks.
(§4) Bacteria Culture Preparation: Bacteria were streaked on MH-II agar plates from glycerol stocks. The streaked plates were placed in an incubator at 37 °C without shaking for 18-hours. A sterilized pipet tip was gently touched on the surface of a single colony and added to autoclaved MH-II broth (5 mL) in a sterilized 14-mL culture tube. The cultures were incubated for 18 hours at 37 °C with shaking at 215 rpm. The cultures were diluted 200-fold into autoclaved MH-II broth (4 mL) and incubated at 37 °C with shaking at 215 rpm for 3-5 hours, or until an OD 600 of 0.5 was achieved. An aliquot of the culture (1 mL) was transferred to a sterilized culture tube and diluted with filter-sterilized PBS (~7 mL) until an OD600 of 0.13-0.15 was achieved. An aliquot ([…]) of the cultures was then transferred into MH-II media (15-mL) to achieve a concentration of 1×10^5 cells/mL. The diluted cultures (90 μL/well) were then added to substrate (10 μL at the following concentrations: 640 μg/mL, 320 μg/mL, 160 μg/mL, 80 μg/mL, 40 μg/mL, 20 μg/mL, 10 μg/mL, and 0 μg/mL in sterilized 96-well plates to achieve a final substrate concentration of 64 μg/mL, 32 μg/mL, 16 μg/mL, 8 μg/mL, 4 μg/mL, 2 μg/mL, 1 μg/mL, and 0 μg/mL. The 96-well plates were then sealed with sterilized gas-permeable covers. The plates were incubated at 37 °C with shaking at 215 rpm for 16 hours. Each well condition was prepared in triplicate, and each MIC assay was repeated on a different day. The turbidity of each well was examined visually and the MIC was counted as the lowest concentration that lacked turbidity.
A general note: Broth dilution looks for growth in wells or tubes with falling amounts of substance.

The subject of the next series is A. baumannii 5075. Briefly: MIC, broth microdilution. The series is classed as cell-based. Particulars: Acinetobacter baumannii, MH-II broth, 16 h, 37 °C, dipyridyl 200 μM for siderophore conjugates.
Description: as §2, §3, §4

A further series deals with E. aerogenes ATCC 13048. Briefly: MIC, broth microdilution. The series is classed as cell-based. Particulars: Klebsiella aerogenes, ATCC13048, MH-II broth, 16 h, 37 °C, dipyridyl 200 μM for siderophore conjugates.
Description: as §2, §3, §4

A further series has as its system E. coli DCO. The series is described as follows: MIC, broth microdilution. The settings on record: Escherichia coli, MH-II broth, 16 h, 37 °C, dipyridyl 200 μM for siderophore conjugates. Format: cell-based.
Description: as §2, §3, §4

For a further series, the system named is E. coli K12 MG1655. The series is described as follows: MIC, broth microdilution. Format: cell-based. The settings on record: Escherichia coli, MH-II broth, 16 h, 37 °C, dipyridyl 200 μM for siderophore conjugates.
Description: as §2, §3, §4

In a further series the test system is K. pneumoniae KPPR1. The series is described as follows: MIC, broth microdilution. The settings on record: Klebsiella pneumoniae, MH-II broth, 16 h, 37 °C, dipyridyl 200 μM for siderophore conjugates. The series is classed as cell-based.
Description: as §2, §3, §4

A further series relates to K. pneumoniae MGH 78578. The series is described as follows: MIC, broth microdilution. Format: cell-based. The settings on record: Klebsiella pneumoniae, MGH78578, MH-II broth, 16 h, 37 °C, dipyridyl 200 μM for siderophore conjugates.
Description: as §2, §3, §4

For the next series, the system named is S. enterica 14028s. Briefly: MIC, broth microdilution. The series is classed as cell-based. The settings on record: Salmonella enterica, MH-II broth, 16 h, 37 °C, dipyridyl 200 μM for siderophore conjugates.
Description: as §2, §3, §4

For another series, the system named is S. typhi ATCC 700931. Briefly: MIC, broth microdilution. Format: cell-based. Particulars: Salmonella enterica, MH-II broth, 16 h, 37 °C, dipyridyl 200 μM for siderophore conjugates.
Description: as §2, §3, §4

Regarding `CC(=O)N[C@@H](CC(C)C)C(=O)N[C@@H](CCC(=O)O)C(=O)N[C@@H](C)C(=O)N[C@@H](CCC(=O)O)C(=O)N[C@@H](CC(C)C)C(=O)NCC(=O)Nc1ccc2c(CC(N)=O)cc(=O)oc2c1` [Ac-LEAELG-ACC, Ac-LEAELG(SEQ ID NO: 3)-ACC] (Ac-LEAELG-{ACC}), the “stability in serum / release of ACC in serum (in words)” value in [1] is listed as “did not show a significant loss of serum stability relative to the parent peptide”. For the same compound, the “cleavage rate / release of ACC in periplasmic extract (in words)” value in series [2] was “dramatically enhanced the cleavage rates in periplasmic extracts”.
With `CC(=O)N[C@@H](CC(C)C)C(=O)N[C@@H](CCC(=O)O)C(=O)N[C@@H](Cc1c[nH]cn1)C(=O)N[C@@H](CCC(=O)O)C(=O)N[C@@H](CC(C)C)C(=O)NCC(=O)Nc1ccc2c(CC(N)=O)cc(=O)oc2c1` [Ac-LEHELG-ACC, Ac-LEHELG(SEQ ID NO: 63)-ACC] (Ac-LEHELG-{ACC}), the “stability in serum / release of ACC in serum (in words)” value in series [1] was “Minimal release of ACC; also recorded: highest stability in mouse serum compared to all ala-substituted variants”. The “cleavage rate / release of ACC in periplasmic extract (in words)” value in series [2] is listed as “cleaving rapidly”.
As usually defined, the EC50 is the concentration needed to bring the measured effect to its halfway point. A lower EC50 goes with an effect from little substance. In turn, `CO[C@@]12[C@H](COC(N)=O)C3=C(C(=O)C(C)=C(N)C3=O)N1C[C@@H]1N[C@@H]12` [mitomycin C, reference compound] had a half-maximal effective concentration (EC50) with HL60 cells of 1000 nM. This lies in the single-digit micromolar range.
For orientation: MIC means the lowest concentration found to suppress growth. Read a low MIC as a more susceptible organism. For the compound `CC[C@H]1OC(=O)[C@@](C)(F)C(=O)[C@H](C)[C@@H](O[C@@H]2O[C@H](C)C[C@H](N(C)C)[C@H]2O)[C@](C)(OC)C[C@@H](C)C(=O)[C@H](C)[C@H]2N(CCCCn3cc(-c4cccc(N)c4)nn3)C(=O)O[C@]12C` [solithromycin], the MIC against A baumannii WC487 was 4 µM (≈ 3.38 µg/mL); against A. baumannii 5075, 8 µM (≈ 6.76 µg/mL); in the series on E. aerogenes ATCC 13048, 8 µM (≈ 6.76 µg/mL); in the series with E. coli DCO, below 1 µM; with E. coli K12 MG1655, below 1 µM; with K. pneumoniae KPPR1, 4 µM (≈ 3.38 µg/mL). For the same compound, the figures for the MIC in the series on K. pneumoniae MGH 78578, against S. enterica 14028s and against S. typhi ATCC 700931 were 4 µM (≈ 3.38 µg/mL), 8 µM (≈ 6.76 µg/mL) and 8 µM (≈ 6.76 µg/mL), respectively.
